Experimental data taken from patent publication US7138414B2, “Heterocyclically substituted benzoylureas, process for their preparation and their use as pharmaceuticals” (Sanofi-Aventis Deutschland GmbH, priority 2002, dated 2006).

Target: T1, human glycogen phosphorylase a (Homo sapiens, UniProt P06737)
T1 sequence (P06737 2-847 limits assumed): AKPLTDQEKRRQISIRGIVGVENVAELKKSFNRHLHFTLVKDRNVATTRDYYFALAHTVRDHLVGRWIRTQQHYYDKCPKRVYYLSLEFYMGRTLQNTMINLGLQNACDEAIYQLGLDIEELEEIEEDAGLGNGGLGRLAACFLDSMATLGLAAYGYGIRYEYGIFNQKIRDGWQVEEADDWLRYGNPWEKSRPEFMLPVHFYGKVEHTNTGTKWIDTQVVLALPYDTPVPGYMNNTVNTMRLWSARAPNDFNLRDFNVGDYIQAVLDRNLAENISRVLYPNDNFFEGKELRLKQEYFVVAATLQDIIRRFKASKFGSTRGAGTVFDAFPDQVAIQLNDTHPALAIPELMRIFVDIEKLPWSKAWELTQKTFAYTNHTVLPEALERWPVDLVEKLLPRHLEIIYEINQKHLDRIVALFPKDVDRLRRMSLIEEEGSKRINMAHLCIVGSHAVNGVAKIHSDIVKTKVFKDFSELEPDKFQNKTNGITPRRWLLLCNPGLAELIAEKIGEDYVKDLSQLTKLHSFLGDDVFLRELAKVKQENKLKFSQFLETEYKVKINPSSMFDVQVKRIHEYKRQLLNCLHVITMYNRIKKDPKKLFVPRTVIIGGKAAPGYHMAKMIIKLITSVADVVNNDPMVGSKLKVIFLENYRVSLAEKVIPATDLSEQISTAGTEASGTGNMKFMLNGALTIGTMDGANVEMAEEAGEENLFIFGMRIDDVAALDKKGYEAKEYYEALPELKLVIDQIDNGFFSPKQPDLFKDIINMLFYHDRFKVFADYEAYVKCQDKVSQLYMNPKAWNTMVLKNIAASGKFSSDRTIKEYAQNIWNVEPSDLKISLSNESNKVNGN
Test: Glycogen phosphorylase a activity test (reverse direction, release of inorganic phosphate)
Format: biochemical
Details: 10 μM test substance; duplicate determinations; 40 min at room temperature
Description: Glycogen Phophorylase a Activity Test
All reactions were carried out as duplicate determinations in 96-well microtiter plates (half area plates, Costar No. 3696), and the change in absorption as a consequence of the formation of the reaction product was measured at the wavelength specified below in a Multiskan Ascent Elisa Reader (Lab Systems, Finland).
In order to measure the GPa enzyme activity in the reverse direction, the conversion of glucose 1-phosphate to glycogen and inorganic phosphate was measured by the general method of Engers et al. (Engers H D, Shechosky S, Madsen N B, Can J Biochem 1970 July;48(7):746–754) with the following modifications: human glycogen phosphorylase a (for example containing 0.76 mg of protein/ml (Aventis Pharma Deutschland GmbH), dissolved in buffer solution E (25 mM β-glycerophosphate, pH 7.0, 1 mM EDTA and 1 mM dithiothreitol) was diluted to a concentration of 10 μg of protein/ml with buffer T (50 mM Hepes, pH 7.0, 100 mM KCl, 2.5 mM EDTA, 2.5 mM MgCl26H2O) and addition of 5 mg/ml of glycogen. Test substances were prepared as a 10 mM solution in DMSO and diluted to 50 μM with buffer solution T. To 10 μl of this solution were added 10 μl of 37.5 mM glucose dissolved in buffer solution T and 5 mg/ml of glycogen, and also 10 μl of a solution of human glycogen phosphorylase a (10 μg of protein/ml) and 20 μl of 2.5 mM glucose 1-phosphate. The base value of the activity of glycogen phosphorylase a in the absence of test substance was determined by adding 10 μl of buffer solution T (0.1% DMSO). The mixture was incubated at room temperature for 40 minutes and the released inorganic phosphate was determined by means of the general method of Drueckes et al. (al (Drueckes P, Schinzel R, Palm D, Anal Biochem 1995 Sep. 1;230(1):173–177) with the following modifications: 50 μl of a stop solution of 7.3 mM of ammonium molybdate, 10.9 mM of zinc acetate, 3.6% of ascorbic acid, 0.9% of SDS are added to 50 μl of the enzyme mixture. After 60 minutes of incubation at 45° C., the absorption was measured at 820 nm. To determine the background absorption, the stop solution was added immediately after the addition of the glucose 1-phosphate solution in a separate reaction. This test was carried out at a concentration of 10 μM of the test substance, in order to determine the respective inhibition of glycogen phosphorylase a by the test substance in vitro.

% inhibition at 10 μM	Compound
94%	O=C(NC(=O)c1cc(F)c(F)cc1Cl)Nc1ccc(-n2cncn2)cc1F [Example 1c, 1-(2-chloro-4,5-difluorobenzoyl)-3-(2-fluoro-4-[1,2,4]triazol-1-ylphenyl)urea]
94%	COc1cc(-c2nnc(C)[nH]2)ccc1NC(=O)NC(=O)c1ccc(F)cc1Cl [Example 2c, 1-(2-chloro-4-fluorobenzoyl)-3-[2-methoxy-4-(5-methyl-4H-[1,2,4]triazol-3-yl)-phenyl]urea]
100%	COc1cc(-c2nnc(C)[nH]2)ccc1NC(=O)NC(=O)c1cc(F)c(F)cc1Cl [Example 3, 1-(2-chloro-4,5-difluorobenzoyl)-3-[2-methoxy-4-(5-methyl-4H-[1,2,4]triazol-3-yl)-phenyl]urea]
90%	COc1cc(-c2nnc(CC(=O)O)[nH]2)ccc1NC(=O)NC(=O)c1ccc(F)cc1Cl [Example 4d, (5-(4-(3-(2-chloro-4-fluorobenzoyl)ureido)-3-methoxyphenyl)-4H-[1,2,4]triazol-3-yl)acetic acid]
9%	Cc1nnc(-c2ccccc2NC(=O)NC(=O)c2cc(F)c(F)cc2Cl)n1-c1ccccc1C(=O)O [Example 5e, 2-(3-{2-[3-(2-chloro-4,5-difluorobenzoyl)ureido]phenyl}-5-methyl-[1,2,4]triazol-4-yl)benzoic acid]
100%	Cc1nnc(-c2ccc(Cl)c(NC(=O)NC(=O)c3cc(F)c(F)cc3Cl)c2)[nH]1 [Example 6d, 1-(2-chloro-4,5-difluorobenzoyl)-3-[2-chloro-5-(5-methyl-4H-[1,2,4]triazol-3-yl)phenyl]urea]
100%	O=C(NC(=O)c1cc(F)c(F)cc1Cl)Nc1cc(-c2nnc[nH]2)ccc1Cl [Example 6e, 1-(2-chloro-4,5-difluorobenzoyl)-3-[2-chloro-5-(4H-[1,2,4]triazol-3-yl)phenyl]urea]
100%	O=C(NC(=O)c1ccc(F)cc1Cl)Nc1ccc(-c2nnn[nH]2)cc1Cl [Example 7c, 1-(2-chloro-4-fluorobenzoyl)-3-[2-chloro-4-(1H-tetrazol-5-yl)phenyl]urea]
100%	O=C(NC(=O)c1cc(F)c(F)cc1Cl)Nc1ccc(-c2nnn[nH]2)cc1Cl [Example 7d, 1-(2-chloro-4,5-difluorobenzoyl)-3-[2-chloro-4-(1H-tetrazol-5-yl)phenyl)urea]
100%	O=C(NC(=O)c1ccc(F)cc1Cl)Nc1ccc(-c2nnn[nH]2)cc1OC(F)(F)F [Example 7e, 1-(2-chloro-4-fluorobenzoyl)-3-[4-(1H-tetrazol-5-yl)-2-trifluoromethoxyphenyl]-urea]
100%	O=C(NC(=O)c1cc(F)c(F)cc1Cl)Nc1ccc(-c2nnn[nH]2)cc1OC(F)(F)F [Example 7f]
96%	COc1cc(-c2nnc(O)o2)ccc1NC(=O)NC(=O)c1ccc(F)cc1Cl [Example 8c, 1-(2-chloro-4-fluorobenzoyl)-3-[4-(5-hydroxy-[1,3,4]oxadiazol-2-yl)-2-methoxyphenyl]urea]
20%	COc1nn(-c2ccc(NC(=O)NC(=O)c3ccc(F)cc3Cl)c(OC)c2)c(=O)o1 [Example 9e, 1-(2-chloro-4-fluorobenzoyl)-3-(2-methoxy-4-(5-methoxy-2-oxo-3H-[1,3,4]-oxadiazol-3-yl)phenyl)urea]
79%	Cc1nnc(-c2ccc(NC(=O)NC(=O)c3ccc(F)cc3Cl)c(Cl)c2)o1 [Example 9g, 1-(2-chloro-4-fluorobenzoyl)-3-[2-chloro-4-(5-methyl-[1,3,4]oxadiazol-2-yl)phenyl]urea]
100%	Nc1nnc(-c2ccccc2NC(=O)NC(=O)c2cc(F)c(F)cc2Cl)o1 [Example 10c, 1-[2-(5-amino-[1,3,4]oxadiazol-2-yl)phenyl]-3-(2-chloro-4,5-difluorobenzoyl)urea]
100%	O=C(NC(=O)c1cc(F)c(F)cc1Cl)Nc1ccc(-c2noc(=O)[nH]2)cc1OC(F)(F)F [Example 11d, 1-(2-chloro-4,5-difluorobenzoyl)-3-[4-(5-oxo-4,5-dihydro-[1,2,4]oxadiazol-3-yl)-2-trifluoromethoxyphenyl]urea]
85%	Cc1cc(=O)n(-c2ccc(NC(=O)NC(=O)c3ccc(F)cc3Cl)c(C)c2)[nH]1 [Example 12c, 1-(2-chloro-4-fluorobenzoyl)-3-[2-methyl-4-(3-methyl-5-oxo-2,5-dihydropyrazol-1-yl)phenyl]urea]

% inhibition at 10 μM	Compound
48%	O=C(NC(=O)c1cc(F)c(F)cc1Cl)Nc1ccccc1-c1nc2ccccc2[nH]1 [Example 13a, 1-[2-(1H-benzoimidazol-2-yl)phenyl]-3-(2-chloro-4,5-difluorobenzoyl)urea]
97%	Cc1nnc(-c2ccc(Cl)c(NC(=O)NC(=O)c3cc(F)c(F)cc3Cl)c2)[nH]c1=O [Example 14e, 1-(2-chloro-4,5-difluorobenzoyl)-3-[2-chloro-5-(6-methyl-5-oxo-4,5-dihydro-[1,2,4]triazin-3-yl)phenyl]urea]
100%	Cc1nnc(-c2ccc(Cl)c(NC(=O)NC(=O)c3cc(F)c(F)cc3Cl)c2)nc1C [Example 14f, 1-(2-chloro-4,5-difluorobenzoyl)-3-[2-chloro-5-(5,6-dimethyl-[1,2,4]triazin-3-yl)phenyl]urea]
1.0%	NC(=O)C1CCCN(c2ccc(F)cc2NC(=O)NC(=O)c2ccc(F)cc2Cl)C1 (stereo not shown) [Example 19]
0.04%	O=C(NC(=O)c1ccc(F)cc1Cl)Nc1cc(F)ccc1N1CCC(C(=O)O)CC1 [Example 20]
0.3%	CS(=O)(=O)c1ccc(N2CCCC(C(=O)O)C2)c(NC(=O)NC(=O)c2cc(F)c(F)cc2Cl)c1 (stereo not shown) [Example 21]
1.1%	CS(=O)(=O)c1ccc(N2CCCC(C(=O)O)C2)c(NC(=O)NC(=O)c2ccc(F)cc2Cl)c1 (stereo not shown) [Example 22]
0.03%	O=C(NC(=O)c1cc(F)c(F)cc1Cl)Nc1cc(C(F)(F)F)ccc1N1CCCC(C(=O)O)C1 (stereo not shown) [Example 23]
0.09%	O=C(NC(=O)c1ccc(F)cc1Cl)Nc1cc(C(F)(F)F)ccc1N1CCCC(C(=O)O)C1 (stereo not shown) [Example 24]
0.06%	Cc1ccc(NC(=O)NC(=O)c2ccc(F)cc2Cl)c(N2CCCC(C(=O)O)C2)c1 (stereo not shown) [Example 25]
0.04%	Cc1ccc(NC(=O)NC(=O)c2cc(F)c(F)cc2Cl)c(N2CCCC(C(=O)O)C2)c1 (stereo not shown) [Example 26]
0.04%	Cc1ccc(N2CCCC(C(=O)O)C2)c(NC(=O)NC(=O)c2ccc(F)cc2Cl)c1 (stereo not shown) [Example 28]
0.03%	O=C(NC(=O)c1ccc(F)cc1Cl)Nc1cc(Cl)ccc1N1CCCC(C(=O)O)C1 (stereo not shown) [Example 32]
1.0%	COC(=O)c1ccc(N2CCCC(C(=O)O)C2)c(NC(=O)NC(=O)c2cc(F)c(F)cc2Cl)c1 (stereo not shown) [Example 33]
3.2%	COC(=O)c1ccc(N2CCCC(C(=O)O)C2)c(NC(=O)NC(=O)c2ccc(F)cc2Cl)c1 (stereo not shown) [Example 34]
0.3%	CCOC(=O)C1CCCN(c2ccc(F)cc2NC(=O)NC(=O)c2cc(F)c(F)cc2Cl)C1 (stereo not shown) [Example 35]
0.3%	CCOC(=O)C1CCCN(c2ccc(F)cc2NC(=O)NC(=O)c2ccc(F)cc2Cl)C1 (stereo not shown) [Example 36]
